Source: US20260069539A1, “LIPIDOID COMPOUNDS AND RELATED COMPOSITIONS AND USES” (Poseida Therapeutics, Inc., priority 2023, published 2026)

Legend:
[1] = Body weight change / body weight loss 24 hours post-administration of LNP; format: in vivo, BALB/C mice
Experimental: In addition, the body weight of mice treated with LNP compositions of the present disclosure prepared as described in Example 77 was assessed prior to intravenous administration and 24 hours post-administration and the body weights at baseline and post-treatment were compared.
In addition, the body weight of mice treated with LNP compositions of the present disclosure was assessed prior to intravenous administration and 24 hours post-administration and the body weights at baseline and post-treatment were compared.
Body weight loss (BWL) measurements were taken at 24 hrs post administration and luciferase expression was measured by whole body luminescence imaging (BLI) at 48 hours post-administration.
(§1) Blood was drawn from control and treated mice 4 hrs post-administration for cytokine analysis, body weight loss (BWL) measurements were taken at 24 hrs post administration and luciferase expression was measured by whole body luminescence imaging (BLI) at 48 hours post-administration.

liver cells [2] = test: In vivo LNP delivery of DNA encoding firefly luciferase, bioluminescent imaging (BLI) at 48 hr; design: species or system BALB/C mice; conditions: for Total Flux: Example 103, 0.5 mg/kg DNA intravenous, BLI at 48 hr; for Mean Luciferase Flux: DNA encoding firefly luciferase, 48 hr
Experimental: Adult BALB/C mice (n=3) were administered 0.5 mg/kg of DNA encoding firefly luciferase (Nature Technology Corp) formulated in a LNP composition listed in Table 4. One group of mice was treated with vehicle (PBS, Thermo Fisher Scientific, USA) as a negative control.
The location and extent of luciferase expression in treated and control mice were determined at 48 hr for DNA delivery by bioluminescent imaging (BLI) of anesthetized mice using an IVIS Lumina in vivo imaging system (Perkin Elmer) according to the manufacturer's instructions. Briefly, mice were anesthetized using isoflurane in oxygen, and placed supine on a heated stage. Mice were then administered D-luciferin (Perkin-Elmer #122799) IP, and BLI was performed.
The location and extent of luciferase expression in treated and control mice were determined at 48 hr for DNA by bioluminescent imaging (BLI) of anesthetized mice using an IVIS Lumina in vivo imaging system (Perkin Elmer) according to the manufacturer's instructions. Briefly, mice were anesthetized using isoflurane in oxygen, and placed supine on a heated stage. Mice were then administered D-luciferin (Perkin-Elmer #122799) IP, and BLI was performed. […]
Body weight loss (BWL) measurements were taken at 24 hrs post administration and luciferase expression was measured by whole body luminescence imaging (BLI) at 48 hours post-administration. […]
Luciferase expression was measured by whole body luminescence imaging (BLI) at 48 hours post-administration.

liver cells [3] = test: In vivo LNP delivery of fLuciferase mRNA, bioluminescent imaging (BLI) at 4 hr; design: species or system BALB/C mice; conditions: for Mean Luciferase Flux: 0.5 mg/kg fLuc mRNA i.v., 4 hr
Experimental: Adult female BALB/C mice (n=3/group) were intravenously administered 0.5 mg/kg of 5′-CleanCap—fLuciferase mRNA (TriLink Biotech) formulated with the LNP compositions shown in Table 6. One group of mice was treated with vehicle (PBS, Thermo Fisher Scientific, USA) as a negative control.
The location and extent of luciferase expression in treated and control mice were determined at 4 hr for mRNA and 48 hr for DNA by bioluminescent imaging (BLI) of anesthetized mice using an IVIS Lumina in vivo imaging system (Perkin Elmer) according to the manufacturer's instructions. Briefly, mice were anesthetized using isoflurane in oxygen, and placed supine on a heated stage. Mice were then administered D-luciferin (Perkin-Elmer #122799) IP, and BLI was performed.
(§2) The location and extent of luciferase expression in treated and control mice were determined at 4 hr by bioluminescent imaging (BLI) of anesthetized mice using an IVIS Lumina in vivo imaging system (Perkin Elmer) according to the manufacturer's instructions. Briefly, mice were anesthetized using isoflurane in oxygen, and placed supine on a heated stage. Mice were then administered D-luciferin (Perkin-Elmer #122799) IP, and BLI was performed.
as §2
The location and extent of luciferase expression in treated and control mice were determined at 4 hr by bioluminescent imaging (BLI) of anesthetized mice using an IVIS Lumina in vivo imaging system (Perkin Elmer) according to the manufacturer's instructions.
Briefly, mice were anesthetized using isoflurane in oxygen, and placed supine on a heated stage. Mice were then administered D-luciferin (Perkin-Elmer #122799) IP, and BLI was performed.
as §2

pcsk9 protein = test: Serum Pcsk9 ELISA 7 days after LNP delivery of Cas-CLOVER mRNA and pcsk9 gRNAs (in vivo gene editing); design: species or system mouse; conditions: serum 7 days
Experimental: In two separate experiments, each group of adult female BALB/C mice (n=2/group) was intravenously co-administered mRNA encoding 5′-CleanCap-5MeC-Cas-CLOVER (SEQ ID NO: 5) and a pair of gRNAs (SEQ ID NOs: 6 and 7) targeted to the first exon of the mouse pcsk9 gene.
After seven days post-administration, blood samples were drawn from the subjects. Briefly, 500 μL of blood was collected after euthanasia via cardiac puncture using 2 ml syringes and 25G needles, transferred to microcentrifuge tubes, incubated at room temperature for 1 hour, and centrifuged at 1500 g for 15 minutes to separate the cellular fraction from serum. Serum fraction (200 μL) was transferred to a new tube and stored at −80C until further analysis.
Serum levels of the pcsk9 protein in the mice were measured 7 days after administration. Results are shown in Table 23 for the first experiment and Table 24 for the second experiment. Briefly, a mouse Pcsk9 ELISA kit (Biolegend) was used to determine Pcsk9 in each serum sample following manufacturer's instructions. All serum samples were assayed in triplicate and results were expressed as percentage in Pcsk9 levels compared with Pcsk9 levels of PBS-treated mice.

[4] = tested on: proinflammatory cytokines IL-6, INF-G, TNF-α, MCP-1, MIP-1a/MIP-1b; test: Serum proinflammatory cytokine levels (ELISA) 4 hours after LNP administration; format: in vivo, BALB/C mice; conditions: 0.5 mg/kg fLuc mRNA i.v., serum at 4 hours
Experimental: The levels of five proinflammatory cytokines present in serum were evaluated at 4 hours after LNP administration for each of the tested concentrations. Briefly, serum samples were prepared as described for liver enzyme analysis and the serum concentration of each cytokine was determined using commercially available ELISA kits (e.g., R&D Systems Quantikine ELISA kits). The levels of the proinflammatory cytokines interleukin-6 (IL-6), interferon gamma (INF-G), tumor necrosis factor alpha (TNF-α), monocyte chemoattractant protein-1 (MCP-1), macrophage inflammatory protein-1 alpha (MIP-1a) in mice treated with LNPs of the present disclosure compared to vehicle treated mice at 4 hours are shown in Table 18.
The levels of five proinflammatory cytokines present in serum were evaluated at 4 hours after LNP administration as described in Example 81. The levels of the proinflammatory cytokines interleukin-6 (IL-6), interferon gamma (INF-G), tumor necrosis factor alpha (TNF-a), monocyte chemoattractant protein-1 (MCP-1), macrophage inflammatory protein-1 beta (MIP-1b) in mice treated with LNPs of the present disclosure are shown in Table 35.
The levels of five proinflammatory cytokines present in serum were evaluated at 4 hours after LNP administration as described in Example 81. The levels of the proinflammatory cytokines interleukin-6 (IL-6), interferon gamma (INF-G), tumor necrosis factor alpha (TNF-a), monocyte chemoattractant protein-1 (MCP-1), macrophage inflammatory protein-1 beta (MIP-1b) in mice treated with LNPs of the present disclosure are shown in Table 38 and Table 39.
The levels of five proinflammatory cytokines present in serum were evaluated at 4 hours after LNP administration as described in Example 81. The levels of the proinflammatory cytokines interleukin-6 (IL-6), interferon gamma (INF-G), tumor necrosis factor alpha (TNF-α), monocyte chemoattractant protein-1 (MCP-1), macrophage inflammatory protein-1 beta (MIP-1b) in mice treated with LNPs of the present disclosure are shown in Table 44.
as §1

[5] = DNA LNP with 43.17 % moles of the compound
[6] = DNA LNP with 50 % moles of the compound
[7] = LNP with 43.17 % moles of the compound (DOPC 11.96/Chol 43.17/PEG-DMG 1.7, Lipid:DNA 80)
[8] = LNP with 50 % moles of the compound (DOPC 10/Chol 38.5/PEG-DMG 1.5, Lipid:DNA 80)
[9] = Table 14 experiment, LNP with 43.17 % moles of the compound (Lipid:RNA 80)
[10] = Table 14 experiment, LNP with 50 % moles of the compound (Lipid:RNA 80)
[11] = LNP with 40.75 % moles of the compound, fLuc mRNA 0.5 mg/kg i.v.
[12] = LNP with 50 % moles of the compound, fLuc mRNA 0.5 mg/kg i.v.
[13] = LNP with 40.8 (40.75) % moles Compound No. 40
[14] = LNP with 50 % moles Compound No. 40
[15] = Table 15 experiment, LNP with 40.75 % moles of the compound (Lipid:RNA 80)
[16] = Table 15 experiment, LNP with 50 % moles of the compound (Lipid:RNA 80)

Compound	% body weight change [1, 5] [%]	% body weight change [1, 6] [%]	Total Flux (liver cells [2]; LNP with 10% DOPC) [p/s]	Total Flux (liver cells [2]; LNP with 10% DSPC) [p/s]	Mean Luciferase Flux (liver cells [2]; [7]) [p/s]	Mean Luciferase Flux (liver cells [2]; [8]) [p/s]	Mean Luciferase Flux (liver cells [3]; [9]) [p/s]	Mean Luciferase Flux (liver cells [3]; [10]) [p/s]	% body weight change [1, 11] [%]	% body weight change [1, 12] [%]	Mean Luciferase Flux (liver cells [3]; [15]) [p/s]	Mean Luciferase Flux (liver cells [3]; [16]) [p/s]	further results
CCCCC[C@H]1CC[C@H](C(=O)OCC(COC(=O)CCCCCN(CCO)CCCCCC(=O)COC(COC(=O)[C@H]2CC[C@H](CCCCC)CC2)COC(=O)[C@H]2CC[C@H](CCCCC)CC2)COC(=O)[C@H]2CC[C@H](CCCCC)CC2)CC1 [COMPOUND NO. 36]	−4.9	−6.7	7.52E+07	1.23E+08	7.99E+07	1.82E+08	1.31E+11	1.19E+11					RNA delivery potency (liver cells [3]; 0.5 mg/kg fLuciferase mRNA in LNP, BLI at 4 hr): RNA delivery potency increases with increasing number of cyclohexyl-substituted tails; Total Flux (liver cells [3]; Example 104, experiment of Table 64, 0.5 mg/kg fLuciferase mRNA intravenous, BLI at 4 hr): 3.25E+11 p/s
CCCCC[C@H]1CC[C@H](C(=O)OCC(COC(=O)CCCCCN(CCCO)CCCCCC(=O)COC(COC(=O)[C@H]2CC[C@H](CCCCC)CC2)COC(=O)[C@H]2CC[C@H](CCCCC)CC2)COC(=O)[C@H]2CC[C@H](CCCCC)CC2)CC1 [COMPOUND NO. 37]	−6.0	−10.7	7.64E+07	1.58E+08	5.80E+07	1.28E+08	3.49E+11	3.55E+11					% Pcsk9 compared to control (pcsk9 protein; DSPC:DOPC molar ratio 5%:5% in LNP, 0.5 mg/kg, lipid:RNA 80:1): 50.4%; % Pcsk9 compared to control (pcsk9 protein; DSPC:DOPC molar ratio 10%:0% in LNP, 0.5 mg/kg, lipid:RNA 80:1): 39.7%; % Pcsk9 compared to control (pcsk9 protein; LNP dose 0.5 mg/kg, COMPOUND NO. 37:DOPC:Cholesterol:DMG-PEG2000 50:10:38.5:1.5, lipid:RNA 80:1): 40.6%; % Pcsk9 compared to control (pcsk9 protein; LNP dose 1.0 mg/kg, COMPOUND NO. 37:DOPC:Cholesterol:DMG-PEG2000 50:10:38.5:1.5, lipid:RNA 80:1): 23.8%
CCCCCC(=O)OCC1CCC(COC(=O)C(CCCN(CCO)CCCC(C(=O)OCC2CCC(COC(=O)CCCCC)CC2)C(=O)OCC2CCC(COC(=O)CCCCC)CC2)C(=O)OCC2CCC(COC(=O)CCCCC)CC2)CC1 (stereo not shown) [COMPOUND NO. 40]									−5.5	−2.0	2.20E+10	1.02E+11	IL-6 cytokine fold changes in treated mice relative to untreated mice [4, 13]: 0.4 fold; INF-G cytokine fold changes in treated mice relative to untreated mice [4, 13]: 1.5 fold; MCP-1 cytokine fold changes in treated mice relative to untreated mice [4, 13]: 1.6 fold; MIP-1a cytokine fold changes in treated mice relative to untreated mice [4, 13]: 1.4 fold; TNF-a cytokine fold changes in treated mice relative to untreated mice [4, 13]: 1.0 fold; IL-6 cytokine fold changes in treated mice relative to untreated mice [4, 14]: 0.6 fold; INF-G cytokine fold changes in treated mice relative to untreated mice [4, 14]: 2.0 fold; MCP-1 cytokine fold changes in treated mice relative to untreated mice [4, 14]: 5.2 fold; MIP-1a cytokine fold changes in treated mice relative to untreated mice [4, 14]: 3.8 fold; TNF-a cytokine fold changes in treated mice relative to untreated mice [4, 14]: 1.1 fold
CC(C)CCCC1CCC(COC(=O)C(CCCN(CCO)CCCC(C(=O)OCC2CCC(CCCC(C)C)CC2)C(=O)OCC2CCC(CCCC(C)C)CC2)C(=O)OCC2CCC(CCCC(C)C)CC2)CC1 (stereo not shown) [COMPOUND NO. 42]									−2.3	−4.0	1.23E+09	8.27E+09	
